# Measured values from US6911449B2, “Inhibition of matrix metalloproteases by substituted biaryl oxobutyric acids” (Bayer Pharmaceuticals Corporation, priority 1996, dated 2005).
# Key:
# [1] = biological target: T1, MMP-9 (Homo sapiens, UniProt P14780); assay: P218 quenched fluorescence assay for MMP inhibition, MMP-9; format: biochemical; conditions: 6 μM P218 substrate, 25 min at 37° C., pH 6.5; read-out: MMP-9 Fluorogenic IC50
# T1 construct: made in house
# From the text: (§1) P218 Quenched Fluorescence Assay for MMP Inhibition:
# (§2) The P218 quenched fluorescence assay (Microfluorometric Profiling Assay) is a modification of that originally described by Knight, et al., FEBS Lett. 296, 263 (1992) for a related substance and a variety of matrix metalloproteinases (MMPs) in cuvettes. The assay was run with each invention compound and the three MMPs, MMP-3, MMP-9 and MMP-2, analyzed in parallel, adapted as follows for a 96-well microtiter plate and a Hamilton AT® workstation.
# (§3) P218 Fluorogenic Substrate: P218 is a synthetic substrate containing a 4-acetyl-7-methoxycoumarin (MCA) group in the N-terminal position and a 3-[2,4-dinitrophenyl]-L-2,3-diaminopropionyl (DPA) group internally. This is a modification of a peptide reported by Knight (1992) that was used as a substrate for matrix metalloproteinases. Once the P218 peptide is cleaved (putative clip site at the Ala-Leu bond), the fluorescence of the MCA group can be detected on a fluorometer with excitation at 328 nm and emission at 393 nm. P218 is currently being produced BACHEM exclusively for Bayer. P218 has the structure:
# (§4) H-MCA-Pro-Lys-Pro-Leu-Ala-Leu-DPA-Ala-Arg-NH2 (MW 1332.2)
# Preparation of Human Recombinant Pro-Gelatinase B (MMP-9):
# Recombinant Human Pro-MMP-9: Human pro-gelatinase B (pro-MMP-9) derived from U937 cDNA as described by Wilhelm, et al. J. Biol. Chem. 264, 17213 (1989) was expressed as the full-length form using a baculovirus protein expression system. The pro-enzyme was purified using methods previously described by Hibbs, et al. J. Biol. Chem. 260, 2493 (1984).
# Activation of Pro-MMP-9: […] 20 μg/mL in 50 mM Tris at pH 7.4, 10 mM CaCl2, 150 mM NaCl, and 0.005% Brij-35 (MMP-9 activation buffer) was activated by incubation with 0.5 mM p-aminophenylmercuric acetate (APMA) for 3.5 h at 37° C. The enzyme was dialyzed against the same buffer to remove the APMA.
# (§5) Hamiltion Microlab AT Plus: The MMP-Profiling Assay is performed robotically on a Hamilton MicroLab AT Plus®. The Hamilton is programmed to: (1) serially dilute up to 11 potential inhibitors automatically from a 2.5 mM stock in 100% DMSO; (2) distribute substrate followed by inhibitor into a 96 well Cytofluor plate; and (3) add a single enzyme to the plate with mixing to start the reaction. Subsequent plates for each additional enzyme are prepared automatically by beginning the program at the substrate addition point, remixing the diluted inhibitors and beginning the reaction by addition of enzyme. In this way, all MMP assays were done using the same inhibitor dilutions.
# (§6) Millipore Cytofluor II. Following incubation, the plate was read on a Cytofluor II fluorometric plate reader with excitation at 340 nm and emission at 395 nm with the gain set at 80.
# (§7) Microfluorometric Reaction Buffer (MRB): Dilution of test compounds, enzymes, and P218 substrate for the microfluorometric assay were made in microfluorometric reaction buffer consisting of 50 mM 2-(N-morpholino)ethanesulfonic acid (MES) at pH 6.5 with 10 mM CaCl2, […] NaCl, 0.005% Brij-35 and 1% DMSO.
# (§8) MMP Microfluorometric Profiling Assay. The assay is done with a final substrate concentration of 6 μM P218 and approximately 0.5 to 0.8 nM MMP with variable drug concentrations. The Hamilton is programmed to serially dilute up to 11 compounds from a 2.5 mM stock (100% DMSO) to 10× the final compounds concentrations in the assay. Initially, the instrument delivers various amounts of microfluoromentric reaction buffer (MRB) to a 96 tube rack of 1 ml Marsh dilution tubes. The instrument then picks up 20 μl of inhibitor (2.5 mM) from the sample rack and mixes it with a buffer in row A of the Marsh rack, resulting in a 50 μM drug concentration. The inhibitors are then serially diluted to 10, 5, 1, 0.2, 0.05 and 0.01 μM. […]
# [2] = biological target: T2, MMP-3 (Homo sapiens, UniProt P08254); assay: P218 quenched fluorescence assay for MMP inhibition, MMP-3; format: biochemical; conditions: 6 μM P218 substrate, 25 min at 37° C., pH 6.5; read-out: MMP-3 Fluorogenic IC50
# T2 construct: made in house; host or cells: CHO cells
# From the text: as §1, §2, §3, §4
# Recombinant Human CHO Stromelysin (MMP-3)
# Recombinant Human CHO Pro-MMP-3: Human CHO pro-stromelysin-257 (pro-MMP-3) was expressed and purified as described by Housley, et al., J. Biol. Chem. 268, 4481 (1993).
# Activation of Pro-MMP-3: Pro-MMP-3 at 1.72 μM (100 μg/mL) in 5 mM Tris at pH 7.5, 5 mM CaCl2, 25 mM NaCl, and 0.005% Brij-35 (MMP-3 activation buffer) was activated by incubation with TPCK (N-tosyl-(L)-phenylalanine chloromethyl ketone) trypsin (1:100 w/w to pro-MMP-3) at 25° C. for 30 min. The reaction was stopped by addition of soybean trypsin inhibitor (SBTI; 5:1 w/w to trypsin concentration). This activation protocol results in the formation of 45 kDa active MMP-3, which still contains the C-terminal portion of the enzyme.
# as §5, §6, §7, §8
# [3] = biological target: MMP-2 (Homo sapiens, UniProt P08253); assay: biochemical; conditions: MMP-2 Fluorogenic IC50
# [4] = Child, et al., J. Pharm. Sci., 66, 466 (1977); cited from earlier work
# T1 sequence (P14780 107-707 limits assumed): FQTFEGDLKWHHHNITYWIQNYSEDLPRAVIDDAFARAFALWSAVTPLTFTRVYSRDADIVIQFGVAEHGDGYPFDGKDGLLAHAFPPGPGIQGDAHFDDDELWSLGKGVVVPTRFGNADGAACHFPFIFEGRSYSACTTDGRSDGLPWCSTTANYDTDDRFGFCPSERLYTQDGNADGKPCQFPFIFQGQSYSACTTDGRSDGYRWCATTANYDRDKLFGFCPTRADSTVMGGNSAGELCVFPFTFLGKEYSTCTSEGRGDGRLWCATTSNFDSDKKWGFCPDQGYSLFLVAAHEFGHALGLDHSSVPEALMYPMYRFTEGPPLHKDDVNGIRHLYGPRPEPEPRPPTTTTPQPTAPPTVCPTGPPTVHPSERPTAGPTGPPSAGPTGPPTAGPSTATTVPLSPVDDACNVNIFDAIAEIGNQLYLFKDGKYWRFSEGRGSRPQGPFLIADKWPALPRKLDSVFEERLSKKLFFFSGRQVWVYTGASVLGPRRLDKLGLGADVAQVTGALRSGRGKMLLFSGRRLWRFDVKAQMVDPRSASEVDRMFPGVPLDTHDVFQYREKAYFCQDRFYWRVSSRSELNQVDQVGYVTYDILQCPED
# T2 sequence (P08254 100-477): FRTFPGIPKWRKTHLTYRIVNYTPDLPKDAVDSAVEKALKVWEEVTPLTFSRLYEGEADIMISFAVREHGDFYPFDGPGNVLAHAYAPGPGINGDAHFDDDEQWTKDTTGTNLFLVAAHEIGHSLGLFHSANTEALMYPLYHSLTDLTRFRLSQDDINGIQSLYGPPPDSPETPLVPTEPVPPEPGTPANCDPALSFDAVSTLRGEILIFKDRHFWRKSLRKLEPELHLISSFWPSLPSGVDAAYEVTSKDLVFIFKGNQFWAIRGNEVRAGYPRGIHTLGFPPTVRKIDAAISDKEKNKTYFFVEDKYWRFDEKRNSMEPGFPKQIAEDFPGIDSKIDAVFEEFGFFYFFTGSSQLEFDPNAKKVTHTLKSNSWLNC
# Chain of MMP-2 (P08253 110-660): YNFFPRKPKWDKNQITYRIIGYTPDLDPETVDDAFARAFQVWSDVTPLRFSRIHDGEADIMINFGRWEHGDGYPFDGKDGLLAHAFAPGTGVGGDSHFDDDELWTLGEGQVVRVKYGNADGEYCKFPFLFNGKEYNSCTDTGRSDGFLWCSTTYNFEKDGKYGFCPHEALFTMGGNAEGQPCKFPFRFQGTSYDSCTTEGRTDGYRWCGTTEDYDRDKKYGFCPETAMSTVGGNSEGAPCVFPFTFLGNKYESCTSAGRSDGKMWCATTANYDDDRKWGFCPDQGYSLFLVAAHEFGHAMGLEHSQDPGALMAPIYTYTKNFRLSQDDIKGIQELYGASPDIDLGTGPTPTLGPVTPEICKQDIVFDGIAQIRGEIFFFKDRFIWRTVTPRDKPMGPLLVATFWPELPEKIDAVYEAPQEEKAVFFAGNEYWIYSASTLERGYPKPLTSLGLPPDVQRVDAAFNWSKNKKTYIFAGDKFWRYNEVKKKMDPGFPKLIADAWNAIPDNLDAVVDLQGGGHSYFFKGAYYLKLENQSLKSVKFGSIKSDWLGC
Structure (SMILES),IC50 [1] [µM],melting point [°C],IC50 [2] [µM],IC50 [3] [µM],activity as anti-inflammatory analgesic agents [4]
O=C(O)C1[C@H](COCOCc2ccccc2)CC[C@@H]1C(=O)c1ccc(-c2ccc(Cl)cc2)cc1 (relative stereo) [Example 2],0.024,112 to 130,0.017,0.0095,–
"O=C(CC(CCn1nnc2ccccc2c1=O)C(=O)O)c1ccc(-c2ccc(Cl)cc2)cc1 (single isomer, unassigned) [Example 20, α-[2-(4′-chloro[1,1′-biphenyl]-4-yl)-2-oxoethyl]-4-oxo-1,2,3,-Benzotriazine-3(4H)-butanoic acid]",0.084,–,0.32,0.057,–
"O=C(CC(CCn1nnc2ccccc2c1=O)C(=O)O)c1ccc(-c2ccc(Cl)cc2)cc1 (single isomer, unassigned) [Example 21, α-[2-(4′-chloro[1,1′-biphenyl]-4-yl)-2-oxoethyl]-4-oxo-1,2,3,-Benzotriazine-3(4H)-butanoic acid]",0.0021,–,0.0065,0.0015,–
O=C(c1ccc(-c2ccc(Cl)cc2)cc1)C1CCC(CSC(=S)N2CCCC2)C1C(=O)O (centres unmarked) [Example 3],0.067,177 to 178,0.031,0.021,–
O=C(c1ccc(-c2ccc(Cl)cc2)cc1)C1CCC(Cn2ncc3ccccc3c2=O)C1C(=O)O (centres unmarked) [Example 5],0.0023,–,0.0042,0.0014,–
O=C(c1ccc(-c2ccc(Cl)cc2)cc1)C1CCC(Cn2c(=O)oc3ccccc32)C1C(=O)O (centres unmarked) [Example 6],0.0043,–,0.0041,0.0005,–
"O=C(CC(CCn1ncc2ccccc2c1=O)C(=O)O)c1ccc(-c2ccc(Cl)cc2)cc1 (stereo not drawn) [Example 18, R/S α-[2-(4′-chloro[1,1′-biphenyl]-4-yl)-2-oxoethyl]-1-oxo-2(1H)-phthalazinebutanoic acid]",0.032,–,0.059,0.013,–
O=C(O)CC(C(=O)c1ccc(-c2ccccc2)cc1)c1ccccc1 (centres unmarked) [LXXVII],–,–,–,–,inactive
O=C(CC(C(=O)O)c1ccccc1)c1ccc(-c2ccccc2)cc1 (centres unmarked) [XLIX],–,–,–,–,inactive
CC(CC(=O)c1ccc(-c2ccccc2)cc1)C(=O)O (centres unmarked) [XLVII],–,–,–,–,inactive
